The source of these data is patent publication US12479821B2 (MBD CO., LTD., priority 2019, dated 2025).

This experiment has as its target T1, CYP4A (Homo sapiens, UniProt Q02928).
T1 construct: host or cells: bactosome, i.e. bacterial membrane preparation (own knowledge of the term)
T1 sequence (Q02928 5-519): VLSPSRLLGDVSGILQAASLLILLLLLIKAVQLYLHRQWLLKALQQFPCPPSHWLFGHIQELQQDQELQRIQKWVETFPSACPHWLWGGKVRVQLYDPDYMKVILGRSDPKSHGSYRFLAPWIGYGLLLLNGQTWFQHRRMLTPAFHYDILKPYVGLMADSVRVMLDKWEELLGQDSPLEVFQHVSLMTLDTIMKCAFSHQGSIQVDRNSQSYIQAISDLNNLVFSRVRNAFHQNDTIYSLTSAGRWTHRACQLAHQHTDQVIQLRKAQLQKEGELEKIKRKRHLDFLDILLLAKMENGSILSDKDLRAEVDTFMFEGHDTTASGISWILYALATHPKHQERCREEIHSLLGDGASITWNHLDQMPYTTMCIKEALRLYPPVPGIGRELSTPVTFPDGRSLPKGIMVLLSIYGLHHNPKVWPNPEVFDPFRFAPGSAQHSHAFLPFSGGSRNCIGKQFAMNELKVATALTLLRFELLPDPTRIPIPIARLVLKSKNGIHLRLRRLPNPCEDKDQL
Description: CYP4A enzyme assay (Luciferin-ME luminescence, CYP4A bactosome). To be noted: compound concentration 5 μM. Type of experiment: biochemical. The method, then: A commercially available reagent was used for the reagent used in the experiment, and it was manufactured and used if necessary. The device used for activity measurement was EnVision of PerkinElmer or SpectraMax of MOLECULAR DEVICES.
First, CYP4A bactosome and synthetic compound (5 μM) were mixed in assay buffer (100 mM KPO4, 0.1% BSA, 1 mM DTT) in a 384-well plate (white opaque ploystyrene nontreated flat-bottom well), and then reacted at room temperature for 15 minutes. After adding 5 mM Luciferin-ME and NADPH Regeneration system (10× sol.A, 20× sol.B in assay buffer, Cat. Number: V865B, Promega), leave it at room temperature for 30 minutes to allow the CYP4A reaction to occur sufficiently, by adding the Luciferin Detection reagent, the CYP4A reaction was finished, luminescence reaction was induced, and the reaction was carried out at room temperature for 15 minutes. The degree of inhibition of CYP4A activity was measured by comparing the luminescence values from each well with a microplate reader.

Where [1] appears, read: 75% or more, read-out: % Inhibition 75% or more.
The mark [2] stands for this setting: '50%-75%', read-out: % Inhibition 50%-75%.
The mark [3] stands for this setting: 25%-50%, read-out: % Inhibition 25%-50%.

The structures appear in SMILES notation. Read-outs that look alike come from different tables or passages of the source.

Take `CN(C)c1ccc(S(=O)(=O)N2CCCC(C(=O)N3CCN(c4ccnc5cc(F)ccc45)CC3)C2)cc1` (centres unmarked): the inhibition (in general, the relative decrease from the control value, in per cent) at 5 µM under setting [1] was no less than 75%.
On to `CN(C)c1ccc(S(=O)(=O)N2CCC[C@H](C(=O)N3CCN(c4ccnc5cc(F)ccc45)CC3)C2)cc1`, for which the inhibition at 5 µM under setting [1] was no less than 75%.
In the case of `O=C(C1CCCN(S(=O)(=O)c2ccccc2)C1)N1CCN(c2ccnc3cc(Cl)ccc23)CC1` (centres unmarked) [Formula 1, (4-(7-chloroquinolin-4-yl)piperazin-1-yl) (1-(phenylsulfonyl)piperidin-3-yl) methanone], the inhibition at 5 µM under setting [2] lay in the range of 50 to 75%.
Same read-out and setting: the figure for `Cc1ccc(S(=O)(=O)N2CCCC(C(=O)N3CCN(c4ccnc5cc(Cl)ccc45)CC3)C2)cc1` (centres unmarked) [Formula 2, (4-(7-chloroquinolin-4-yl)piperazin-1-yl) (1-tosylpiperidin-3-yl) methanone] is 50 to 75%; for `O=C(C1CCCN(S(=O)(=O)c2ccc(F)cc2)C1)N1CCN(c2ccnc3cc(Cl)ccc23)CC1` (centres unmarked) [Formula 3, (4-(7-chloroquinolin-4-yl)piperazin-1-yl) (1-((4-fluorophenyl)sulfonyl)piperidin-3-yl) methanone] it is 50 to 75%.
Consider `CN(C)c1ccc(S(=O)(=O)N2CCCC(C(=O)N3CCN(c4ccnc5cc(Cl)ccc45)CC3)C2)cc1` (centres unmarked) [Formula 4, (4-(7-chloroquinolin-4-yl)piperazin-1-yl) (1-((4-(dimethylamino)phenyl)sulfonyl)piperidin-3-yl) methanone], for which the inhibition at 5 µM under setting [1] is no less than 75%.
On the same count and under the same terms, the figure for `O=C(C1CCCN(S(=O)(=O)c2ccc(O)cc2)C1)N1CCN(c2ccnc3cc(Cl)ccc23)CC1` (centres unmarked) [Formula 5, (4-(7-chloroquinolin-4-yl)piperazin-1-yl) (1-((4-hydroxyphenyl)sulfonyl)piperidin-3-yl) methanone] is no less than 75%; for `O=C(C1CCCN(S(=O)(=O)c2cccc([N+](=O)[O-])c2)C1)N1CCN(c2ccnc3cc(Cl)ccc23)CC1` (centres unmarked) [Formula 6, (4-(7-chloroquinolin-4-yl)piperazin-1-yl) (1-((3-nitrophenyl)sulfonyl)piperidin-3-yl) methanone] it is no less than 75%.
With `O=C(C1CCCN(S(=O)(=O)c2ccc(C(F)(F)F)cc2)C1)N1CCN(c2ccnc3cc(Cl)ccc23)CC1` (centres unmarked) [Formula 7, (4-(7-chloroquinolin-4-yl)piperazin-1-yl) (1-((4-(trifluoromethyl)phenyl)sulfonyl)piperidin-3-yl) methanone], under setting [1], the inhibition at 5 µM was no less than 75%.
`O=C(C1CCCN(S(=O)(=O)c2cccc(F)c2)C1)N1CCN(c2ccnc3cc(Cl)ccc23)CC1` (centres unmarked) [Formula 8, (4-(7-chloroquinolin-4-yl)piperazin-1-yl) (1-((3-fluorophenyl)sulfonyl)piperidin-3-yl) methanone]: under setting [2], the inhibition at 5 µM is 50 to 75%.
On the same count and under the same terms, the figure for `O=C(C1CCCN(S(=O)(=O)c2ccc(Oc3ccccc3)cc2)C1)N1CCN(c2ccnc3cc(Cl)ccc23)CC1` (centres unmarked) [Formula 9, (4-(7-chloroquinolin-4-yl)piperazin-1-yl) (1-((4-phenoxyphenyl)sulfonyl)piperidin-3-yl) methanone] is 50 to 75%.
On to `N#Cc1ccc(S(=O)(=O)N2CCCC(C(=O)N3CCN(c4ccnc5cc(Cl)ccc45)CC3)C2)cc1` (centres unmarked) [Formula 10, 4-(3-(1-(7-chloroquinolin-4-yl)piperazine-4-carbonyl)piperidin-1-ylsulfonyl)benzonitrile], for which, under setting [1], the inhibition at 5 µM is no less than 75%.
Same read-out and setting: under `CS(=O)(=O)c1ccc(S(=O)(=O)N2CCCC(C(=O)N3CCN(c4ccnc5cc(Cl)ccc45)CC3)C2)cc1` (centres unmarked) [Formula 11, (4-(7-chloroquinolin-4-yl)piperazin-1-yl) (1-(4-(methylsulfonyl)phenylsulfonyl)piperidin-3-yl) methanone] stands no less than 75%.
For the molecule `COC(=O)c1ccc(S(=O)(=O)N2CCCC(C(=O)N3CCN(c4ccnc5cc(Cl)ccc45)CC3)C2)cc1` (centres unmarked) [Formula 12, methyl 4-((3-(1-(7-chloroquinolin-4-yl)piperazine-1-carbonyl)piperidin-1-yl)sulfonyl)benzoate], under setting [2], the inhibition at 5 µM lay within 50 to 75%.
As to `O=C(C1CCCN(S(=O)(=O)c2ccc(-c3ccccc3)cc2)C1)N1CCN(c2ccnc3cc(Cl)ccc23)CC1` (centres unmarked) [Formula 13, (4-(7-chloroquinolin-4-yl)piperazin-1-yl) (1-(4-phenylbenzenesulfonyl)piperidin-3-yl) methanone], the inhibition at 5 µM under setting [2] fell in the range of 50 to 75%.
As to `COc1cccc(S(=O)(=O)N2CCCC(C(=O)N3CCN(c4ccnc5cc(Cl)ccc45)CC3)C2)c1` (centres unmarked) [Formula 14], under setting [1], the inhibition at 5 µM is no less than 75%.
Same read-out and setting: under `CC(=O)Nc1ccc(S(=O)(=O)N2CCCC(C(=O)N3CCN(c4cc(C)nc5ccccc45)CC3)C2)cc1` (centres unmarked) [Formula 15, N-(4-(3-(1-(2-methylquinolin-4-yl)piperazine-4-carbonyl)piperidin-1-ylsulfonyl)phenyl) acetamide] stands no less than 75%; under `CC(=O)Nc1ccc(S(=O)(=O)N2CCC[C@@H](C(=O)N3CCN(c4cc(C)nc5ccccc45)CC3)C2)cc1` [Formula 16, (R)—N-(4-((3-(4-(2-methylquinolin-4-yl)piperazine-1-carbonyl)piperidin-1-yl)sulfonyl)phenyl) acetamide], no less than 75%.
Turning to `CC(=O)Nc1ccc(S(=O)(=O)N2CCC[C@H](C(=O)N3CCN(c4cc(C)nc5ccccc45)CC3)C2)cc1` [Formula 17, (S)—N-(4-((3-(4-(2-methylquinolin-4-yl)piperazine-1-carbonyl)piperidin-1-yl)sulfonyl)phenyl) acetamide], under setting [2], the inhibition at 5 µM was in the range of 50 to 75%.
Regarding `Cc1cc(N2CCN(C(=O)C3CCCN(S(=O)(=O)c4ccc([N+](=O)[O-])cc4)C3)CC2)c2ccccc2n1` (centres unmarked) [Formula 18, (4-(2-methylquinolin-4-yl)piperazin-1-yl) (1-(4-nitrophenylsulfonyl)piperidin-3-yl) methanone], the inhibition at 5 µM under setting [1] was no less than 75%.
Take `Cc1cc(N2CCN(C(=O)C3CCCN(S(=O)(=O)c4ccccc4)C3)CC2)c2ccccc2n1` (centres unmarked) [Formula 19, (4-(2-methylquinolin-4-yl)piperazin-1-yl) (1-(phenylsulfonyl)piperidin-3-yl) methanone]: under setting [3], the inhibition at 5 µM was in the range of 25 to 50%.
On the same count and under the same terms, the figure for `Cc1ccc(S(=O)(=O)N2CCCC(C(=O)N3CCN(c4cc(C)nc5ccccc45)CC3)C2)cc1` (centres unmarked) [Formula 20, (4-(2-methylquinolin-4-yl)piperazin-1-yl) (1-tosylpiperidin-3-yl) methanone] is 25 to 50%.
On the same count and under the same terms, under `Cc1cccc(S(=O)(=O)N2CCCC(C(=O)N3CCN(c4cc(C)nc5ccccc45)CC3)C2)c1` (centres unmarked) [Formula 21, (4-(2-methylquinolin-4-yl)piperazin-1-yl) (1-(m-tolylsulfonyl)piperidin-3-yl) methanone] stands 25 to 50%.
Still for that read-out and setting: under `Cc1cc(N2CCN(C(=O)C3CCCN(S(=O)(=O)c4ccc(C)c(C)c4)C3)CC2)c2ccccc2n1` (centres unmarked) [Formula 22, (1-((3,4-dimethylphenyl)sulfonyl)piperidin-3-yl) (4-(2-methylquinolin-4-yl)piperazin-1-yl) methanone] stands 25 to 50%; under `CCc1ccc(S(=O)(=O)N2CCCC(C(=O)N3CCN(c4cc(C)nc5ccccc45)CC3)C2)cc1` (centres unmarked) [Formula 23, (1-(4-ethylphenylsulfonyl)piperidin-3-yl) (4-(2-methylquinolin-4-yl)piperazin-1-yl) methanone], 25 to 50%.
Take `Cc1cc(N2CCN(C(=O)C3CCCN(S(=O)(=O)c4ccc(F)cc4)C3)CC2)c2ccccc2n1` (centres unmarked) [Formula 24, (1-((4-fluorophenyl)sulfonyl)piperidin-3-yl) (4-(2-methylquinolin-4-yl)piperazin-1-yl) methanone]: the inhibition at 5 µM under setting [2] lay in the range of 50 to 75%.
The same measure, in the same setting: the figure for `Cc1cc(N2CCN(C(=O)C3CCCN(S(=O)(=O)c4ccc(Cl)cc4)C3)CC2)c2ccccc2n1` (centres unmarked) [Formula 25, (1-(4-chlorophenylsulfonyl)piperidin-3-yl) (4-(2-methylquinolin-4-yl)piperazin-1-yl) methanone] is 50 to 75%; for `Cc1cc(N2CCN(C(=O)C3CCCN(S(=O)(=O)c4ccc(C(F)(F)F)cc4)C3)CC2)c2ccccc2n1` (centres unmarked) [Formula 26, (4-(2-methylquinolin-4-yl)piperazin-1-yl) (1-(4-(trifluoromethyl)phenylsulfonyl)piperidin-3-yl) methanone] it is 50 to 75%; for `Cc1cc(N2CCN(C(=O)C3CCCN(S(=O)(=O)c4cccc(F)c4)C3)CC2)c2ccccc2n1` (centres unmarked) [Formula 27, (1-(3-fluorophenylsulfonyl)piperidin-3-yl) (4-(2-methylquinolin-4-yl)piperazin-1-yl) methanone] it is 50 to 75%.
